Measured values from patent US20110098492A1, “CLEANING COMPOSITIONS CONTAINING MID-RANGE ALKOXYLATES” (priority 2008, published 2011).

Experiments:
[1] = Ross-Miles foam height test (ASTM D1173); type: physicochemical
Procedure: A) Ross-Miles Foam Height Test: This test is carried out according to the protocol of ASTM […].

[2] = Pour point test (ASTM D97); type: physicochemical
Procedure: C) Pour Point Test: This test is carried out according to the protocol of ASTM Test D97.

[3] = Cleaning of cross-linked petroleum grease (1-octadecene soil)
Source text: The same procedure used above for cross-linked triglycerides was used, except that 1-octadecene was used instead of Canola Oil.

[4] = Gel range in water at 23 C; type: physicochemical; design: key: L = Liquid; G = Gel; TL = Thick Liquid
Procedure: One way the industry expresses a tendency of a surfactant to cause gels is a “gel range.” A typical gel range describes a percentage of samples that form gels, out of a number of samples, each having increasing surfactant concentration. […] A sample forms a gel when it is non-pourable for at least five seconds at 23° centigrade (° C.) when its container is inverted 180° so the container's open spout or mouth faces down. For many applications, a surfactant ideally has no gel range.
D) Gel range: Ten surfactant solutions are made using 0%, 10%, 20%, 30%, 40%, 50%, 60%, 70%, 80%, 90% water. […] The test is run at 23 C.

[5] = Surface tension and critical micelle concentration (Wilhelmy plate); type: physicochemical
Procedure: B) Surface Tension and Critical Micelle Concentration (CMC) Measurement. For this test the surface tension of a surfactant-water solution is measured while incrementally adding the surfactant to de-ionized water. Results are measured in terms of dyne/centimeters using a Wilhelmy plate. Results are recorded versus surfactant concentration. The Critical Micelle Concentration is the point at which an increase in surfactant concentration no longer results in a change in surface tension.

Ross Miles Foam Height, millimeters, 5 Minutes ([1]; 5 Minutes): 0 millimeters | Ross Miles Foam Height, millimeters, Initial ([1]; Initial (0 sec)): 45 millimeters | Pour Point [2]: 44 ° F. | Gel Range, Percent Surfactant in Water at 23 C. ([4]; 10% surfactant in water): L | Gel Range, Percent Surfactant in Water at 23 C. ([4]; 20% surfactant in water): L | Gel Range, Percent Surfactant in Water at 23 C. ([4]; 30% surfactant in water): L | Gel Range, Percent Surfactant in Water at 23 C. ([4]; 40% surfactant in water): L | Gel Range, Percent Surfactant in Water at 23 C. ([4]; 50% surfactant in water): L | Gel Range, Percent Surfactant in Water at 23 C. ([4]; 60% surfactant in water): L | Gel Range, Percent Surfactant in Water at 23 C. ([4]; 70% surfactant in water): L | Gel Range, Percent Surfactant in Water at 23 C. ([4]; 80% surfactant in water): TL | Gel Range, Percent Surfactant in Water at 23 C. ([4]; 90% surfactant in water): L | Surface Tension ([5]; 0.1 wt % in water): 31 dyne/centimeters | Critical Micelle Concentration ([5]; in de-ionized water): 1750 ppm
Substance: 2EH(PO)5.5(EO)8 [Example 3]
Arbitrary Gray Value ([3]; 1% by weight in water, cross-linked 1-octadecene soil): 136 | cleaning of cross-linked 1-octadecene / mineral oil (in words) ([3]; compared with Tergitol NP-9): equivalent to Tergitol NP-9
